Reference: ChEMBL document CHEMBL5329216, “Discovery of conformationally constrained c-Abl inhibitors with potential neuroprotective effects against Parkinson's disease” (Bioorg Med Chem, 2023)

Columns and labels:
[1] = Cytotoxicity against human L02 cells assessed as reduction in cell viability incubated for 48 hrs by MTT assay; format: toxicity, cell-based
SH-SY5Y [2] = assay: Neuroprotective activity against MPP+-induced human SH-SY5Y cells assessed as reduction in cell death at 0.08 to 5 uM measured after 48 hrs by MTT assay relative to control; format: functional; parameters: scale not given: the % may be the effect or the level left; conditions: dose 0.08-5 µM
[3] = Cytotoxicity against HEK293 cells assessed as reduction in cell viability incubated for 48 hrs by MTT assay; format: toxicity, cell-based; conditions: human
SH-SY5Y [4] = assay: Neuroprotective activity against MPP+-induced human SH-SY5Y cells assessed as reduction in cell death at 5 uM measured after 48 hrs by MTT assay relative to control; format: functional; parameters: scale not given: the % may be the effect or the level left
[5] = Cytotoxicity against human SH-SY5Y cells assessed as reduction in cell viability incubated for 48 hrs by MTT assay; format: toxicity, cell-based

SMILES	IC50 at 48 h [1] [µM]	Activity (SH-SY5Y [2]) [%]	IC50 at 48 h [3] [µM]	Activity (SH-SY5Y [4]) [%]	IC50 at 48 h [5] [µM]
Cc1cn(-c2cc(NC(=O)c3ccc(C)c(Nc4nccc(-c5cccnc5)n4)c3)cc(C(F)(F)F)c2)cn1 [NILOTINIB]	37	6.9	8.2	20	
Cc1ccc(C(=O)Nc2cc(-c3cnn(C)c3)cc(C(F)(F)F)c2)cc1Nc1cccc2c1C(=O)C(=O)N2C	> 80		> 80		> 80
Cc1ccc(C(=O)Nc2ccc(CN3CCN(C)CC3)c(C(F)(F)F)c2)cc1Nc1cccc2c1C(=O)C(=O)N2C	> 80		16.6		23.6
